This is an account of results in PMC12615485, “New dengue virus inhibitors targeting NS3-NS5 interaction identified by in silico screening” (Frontiers in Microbiology, 2025).

For this assay, the target named is NS3-NS5 interaction (NS3 f.l. binding to coated 6His-NS5_270–900) (Dengue virus type 2, UniProt P14340). Kind of assay: ELISA-based NS3-NS5 interaction assay. Also noted: species or system DENV-2. Particulars: for IC50: analogues of hit 3, in-house synthesized hit 3 as control, 50% inhibition of NS3-NS5 binding in ELISA, read-out: In vitro activity IC50; for reduction of NS3-NS5 interaction: at the tested concentrations. Here is the method: Nunc Maxisorp microplates (Thermo Fisher Scientific) were coated with 400 ng/well of 6His-NS5_270–900, or GST protein as a control, in PBS for 3 h at 37 °C and then blocked with 5% (wt/v) bovine serum albumin (BSA, Merck Life Science) in PBS overnight at 4 °C. Blocked wells were incubated at room temperature (RT) for 2 h with increasing amounts of NS3 f.l. or GST–NS3_172–618. 6His-NS5_270–900-coated plates were also incubated with increasing concentration of GST, as a control. After washing with PBS containing 0.3% Tween 20 (Fisher Scientific, Waltham, MA, United States), the NS3-NS5 interaction was detected by incubating the plates with the anti-NS3 monoclonal antibody (GT2811 clone, Genetex, Irvine, CA, United States) diluted 1:6,000 in PBS + 2% (v/v) FBS (Thermo Fisher Scientific) for 1 h at RT. The unbound primary antibody was removed by further washes with PBS + 0.3% Tween 20 and the secondary goat anti-mouse HRP-conjugated antibody (GenScript Biotech) at a dilution of 1:8,000 in PBS + 2% FBS was then added. After incubation for 1 h at RT and following washes, the colorimetric substrate 3,3′,5,5′-tetramethylbenzidine (TMB, SeraCare Life Sciences, Milford, MA, United States) was added to each well and absorbance was read at 450 nm by an ELISA plate reader (Tecan Infinite 200 PRO, Mannedorf, Switzerland).
To test the inhibitory effect of compounds on NS3-NS5 interaction, 6His-NS5_270–900-coated wells were incubated with a fixed amount of NS3 f.l. (200 ng) along with increasing concentrations of test compounds or DMSO as a control. To exclude non-specific inhibition of compounds due to colloidal aggregation, the inhibitory activities of compounds were tested in the presence or the absence of 0.002% Triton X-100 (Fisher Scientific), a condition which reverses and prevents the colloidal formation of organic molecules ([McGovern et al., 2003]). All the compound concentrations were tested at least in duplicate.
In general terms: In an ELISA, binding on a coated surface is turned into a signal by an enzyme label.

Regarding `Cc1ccc(NC(=S)NNC(=O)c2ccco2)cc1` [Compound 68], the IC50 (as a rule, the point on the concentration scale where inhibition reaches its midpoint) came to 20.1 ± 7.5 µM.

For `O=C(NNC(=S)Nc1ccc([N+](=O)[O-])cc1)c1ccccc1O` [Compound 67], the IC50 is greater than 200 µM and the “reduction of NS3-NS5 interaction” value is given as less than 50%. For the compound `Cc1ccc(NC(=S)NNC(=O)c2ccccc2C)cc1` [Compound 59], the IC50 was found to be 29 ± 6.9 µM. Regarding `Cc1ccc(NC(=O)NNC(=O)c2ccccc2O)cc1` [Compound 79], the IC50 turned out to be 13.9 ± 6.5 µM.

As to `Cc1ccc(Nc2nc(-c3ccccc3O)cs2)cc1` [Compound 78], the IC50 is greater than 200 µM and the “reduction of NS3-NS5 interaction” value is on record as less than 50%. For `COc1ccc(C(=O)NNC(=S)Nc2ccccc2)cc1` [Compound 52], the half-maximal inhibitory concentration (IC50) was found to be 167 ± 29 µM.

Regarding `Cc1ccc(NC(=S)NNC(=O)c2cccs2)cc1` [Compound 65], the IC50 was 64.9 ± 19.5 µM. On to `COc1ccccc1C(=O)NNC(=S)Nc1ccc(C)cc1` [Compound 56], for which the IC50 was determined as 21.2 ± 3.4 µM.

Take `Cc1ccc(NC(=S)NNC(=O)c2ccc(C)cc2)cc1` [Compound 60]: the IC50 was determined as 149 ± 21 µM. In the case of `CN(C)c1ccc(NC(=S)NNC(=O)c2cccs2)cc1` [Compound 70], the IC50 was determined as 25.3 ± 5.4 µM.

Take `Cc1ccc(NC(=S)NNC(=O)c2ccccc2F)cc1` [Compound 58]: the IC50 came out at 21.3 ± 7.9 µM. Regarding `CC(C)C[C@H](NC(=O)[C@H](C)NC(=O)[C@H](CC(C)C)NC(=O)[C@@H](NC(=O)[C@H](CCC(N)=O)NC(=O)[C@@H](NC(=O)[C@H](CCC(=O)O)NC(=O)[C@H](CCC(=O)O)NC(=O)CNC(=O)[C@H](CCC(=O)O)NC(=O)[C@H](CCCCN)NC(=O)[C@H](Cc1c[nH]c2ccccc12)NC(=O)[C@H](CCC(=O)O)NC(=O)CNC(=O)[C@@H](N)CCC(=O)O)C(C)C)C(C)C)C(=O)O` [NS3_86–100 peptide, reference compound], the “inhibitory effect on NS3-NS5 interaction” value (up to 480 μM) is “no inhibitory effect”. `COc1ccc(NC(=S)NNC(=O)c2ccccc2O)cc1` [Compound 74]: the IC50 is greater than 200 µM and the “reduction of NS3-NS5 interaction” value is given as less than 50%. For `Cc1ccc(NC(=S)NNC(=O)c2ccc(O)cc2)cc1` [Compound 62], the IC50 was greater than 200 µM and the “reduction of NS3-NS5 interaction” value is less than 50%. As to `CCOC(=O)c1ccc(NC(=S)NNC(=O)c2ccccc2O)cc1` [Compound 54], the IC50 turned out to be 31 ± 18.3 µM.

Turning to `Cc1ccc(NC(=S)NNC(=O)c2ccc(C(F)(F)F)cc2C(F)(F)F)cc1` [Compound 73], the IC50 was greater than 200 µM and the “reduction of NS3-NS5 interaction” value was less than 50%. Turning to `CN(C)c1ccc(NC(=S)NNC(=O)c2ccccc2O)cc1` [Compound 66], the IC50 amounted to 12.5 ± 4.1 µM. For the compound `CN(C)c1ccc(NC(=S)NNC(=O)c2ccco2)cc1` [Compound 71], the IC50 amounted to 11.6 ± 2.6 µM. Regarding `Cc1ccc(NC(=S)NNC(=O)c2cccc(O)c2)cc1` [Compound 61], the IC50 is greater than 200 µM and the “reduction of NS3-NS5 interaction” value is recorded as less than 50%. Consider `Cc1ccc(NC(=S)NNC(=O)c2ccc(C(F)(F)F)cc2)cc1` [Compound 55], for which the IC50 worked out at 118 ± 23 µM. Still for that read-out and setting: in the case of `N#Cc1ccc(NC(=S)NNC(=O)c2ccccc2O)cc1` [Compound 75] it was 40.3 ± 8.3 µM. Take `Cc1ccc(NC(=S)NNC(=O)c2ccc(C#N)cc2)cc1` [Compound 77]: the IC50 is greater than 200 µM and the “reduction of NS3-NS5 interaction” value is less than 50%. With `O=C(NNC(=S)Nc1ccc(Cl)cc1Cl)c1ccccc1O` [Compound 51], the IC50 is 97.2 ± 24.3 µM. Turning to `Cc1ccc(NC(=S)NNC(=O)c2ccc(O)cc2O)cc1` [Compound 63], the IC50 was determined as 172 ± 31 µM.

With `CC(C)(C)c1ccc(NC(=S)NNC(=O)c2ccccc2O)cc1` [Compound 76], the IC50 is 6.3 ± 2.2 µM.

With `O=C(NNC(=S)Nc1ccccc1)c1ccccc1O` [Compound 53], the IC50 was found to be 82.7 ± 21.5 µM. Same read-out and setting: in the case of `Cc1ccc(NC(=S)NNC(=O)c2ccccc2)cc1` [Compound 57] it was 55.6 ± 22.7 µM.
